Data: patent publication US20260256792A1, “TREATMENT OF CHRONIC SPONTANEOUS URTICARIA BY ADMINISTERING (R)-2-[3-[4-AMINO-3-(2-FLUORO-4-PHENOXY-PHENYL)PYRAZOLO[3,4-D]PYRIMIDIN-1-YL]PIPERIDINE-1-CARBONYL]-4-METHYL-4-[4-(OXETAN-3-YL)PIPERAZIN-1-YL]PENT-2-ENENITRILE” (priority 2023, published 2026)

Test system: moderate-to-severe chronic spontaneous urticaria (CSU)
Assay: Phase 2 CSU study: urticaria activity score over 7 days (UAS7)
Assay type: in vivo, human
Conditions: ITT
From the text: The study comprises a 12 week, randomized, double-blind, placebo-controlled, multi-center, dose-ranging efficacy and safety phase, followed by a 40 week open label extension (OLE) phase (see FIG. 1). The study consists of three phases and an optional OLE phase. […] Clinically, CSU is characterized by the spontaneous and recurrent appearance of pruritic hives. The proposed primary endpoints were the UAS7 at Week 12 in EU and EU reference countries and the ISS7 in the US. Regardless of where a participant was from, all assessments were the same. The UAS7 score is a composite score containing both the HSS7 and the ISS7. This allowed a global assessment of the two key components of urticaria: hives and itch. […] The UAS is a validated PRO measure. […] The daily UAS scores range from 0 to 6 point/day. […] Patients were to complete the UAS using the e-diary. […] The following secondary endpoints were to be analyzed using the same approach as for the primary endpoint: • Change from baseline in UAS7 at Week 4 • Change from baseline in UAS7 at Week 12 (for US and US reference countries) • Change from baseline in ISS7 at Week 12 (except US and US reference countries) • Change from baseline in HSS7 at Week 12 The following responder secondary endpoints were to be analyzed using the Cochran-Mantel-Haenszel test adjusted by region: • Proportion of participants with UAS7<6 at Week 12 • Proportion of participants with UAS7=0 at Week 12 Participants who received selected prohibited medications and/or rescue medications were to be considered as non-responders for time points after the medication usage. For other participants, all available data including those collected during the off-treatment period were to be used to determine the responder/non-responder status. Missing data were to be considered as non-responders.

CC(C)(C=C(C#N)C(=O)N1CCC[C@@H](n2nc(-c3ccc(Oc4ccccc4)cc3F)c3c(N)ncnc32)C1)N1CCN(C2COC2)CC1 [rilzabrutinib, (R)-2-[3-[4-amino-3-(2-fluoro-4-phenoxy-phenyl)pyrazolo[3,4-d]pyrimidin-1-yl]piperidine-1-carbonyl]-4-methyl-4-[4-(oxetan-3-yl)piperazin-1-yl]pent-2-enenitrile]
Non-responder n (%), UAS7 ≤6 (400 mg BID, Week 11): 28 (68.3) n (%)
OR for rilzabrutinib vs. placebo, UAS7 = 0 (400 mg BID, Week 11): 2.892
OR for rilzabrutinib vs. placebo, UAS7 ≤6 (400 mg BID, Week 11): 1.991
RRD (%) for rilzabrutinib vs. placebo, UAS7 = 0 (400 mg BID, Week 11): 8.2 %
RRD (%) for rilzabrutinib vs. placebo, UAS7 ≤6 (400 mg BID, Week 11): 11.8 %
Responder n (%), UAS7 = 0 (400 mg BID, Week 11): 6 (14.6) n (%)
Responder n (%), UAS7 ≤6 (400 mg BID, Week 11): 13 (31.7) n (%)
Imputed non-responder n (%), UAS7 = 0 (400 mg BID, Week 12): 14 (34.1) n (%)
Imputed non-responder n (%), UAS7 ≤6 (400 mg BID, Week 12): 14 (34.1) n (%)
Non-responder n (%), UAS7 = 0 (400 mg BID, Week 12): 33 (80.5) n (%)
Non-responder n (%), UAS7 ≤6 (400 mg BID, Week 12): 31 (75.6) n (%)
OR for rilzabrutinib vs. placebo, UAS7 = 0 (400 mg BID, Week 12): 1.511
OR for rilzabrutinib vs. placebo, UAS7 ≤6 (400 mg BID, Week 12): 2.067
RRD (%) for rilzabrutinib vs. placebo, UAS7 ≤6 (400 mg BID, Week 12): 10.0 %
Responder n (%), UAS7 = 0 (400 mg BID, Week 12): 8 (19.5) n (%)
Responder n (%), UAS7 ≤6 (400 mg BID, Week 12): 10 (24.4) n (%)
Imputed non-responder n (%), UAS7 = 0 (400 mg QPM, Week 1): 0 n (%)
Imputed non-responder n (%), UAS7 ≤6 (400 mg QPM, Week 1): 0 n (%)
Non-responder n (%), UAS7 = 0 (400 mg QPM, Week 1): 38 (100) n (%)
Non-responder n (%), UAS7 ≤6 (400 mg QPM, Week 1): 36 (94.7) n (%)
OR for rilzabrutinib vs. placebo, UAS7 = 0 (400 mg QPM, Week 1): 0.000 (NE,
OR for rilzabrutinib vs. placebo, UAS7 ≤6 (400 mg QPM, Week 1): 1.099
RRD (%) for rilzabrutinib vs. placebo, UAS7 = 0 (400 mg QPM, Week 1): −2.6 %
RRD (%) for rilzabrutinib vs. placebo, UAS7 ≤6 (400 mg QPM, Week 1): 0.4 %
Responder n (%), UAS7 = 0 (400 mg QPM, Week 1): 0 n (%)
Responder n (%), UAS7 ≤6 (400 mg QPM, Week 1): 2 (5.3) n (%)
Imputed non-responder n (%), UAS7 = 0 (400 mg QPM, Week 2): 0 n (%)
Imputed non-responder n (%), UAS7 ≤6 (400 mg QPM, Week 2): 0 n (%)
Non-responder n (%), UAS7 = 0 (400 mg QPM, Week 2): 38 (100) n (%)
Non-responder n (%), UAS7 ≤6 (400 mg QPM, Week 2): 37 (97.4) n (%)
OR for rilzabrutinib vs. placebo, UAS7 = 0 (400 mg QPM, Week 2): 0.000 (NE,
OR for rilzabrutinib vs. placebo, UAS7 ≤6 (400 mg QPM, Week 2): 0.517
RRD (%) for rilzabrutinib vs. placebo, UAS7 = 0 (400 mg QPM, Week 2): −2.6 %
RRD (%) for rilzabrutinib vs. placebo, UAS7 ≤6 (400 mg QPM, Week 2): −2.3 %
Responder n (%), UAS7 = 0 (400 mg QPM, Week 2): 0 n (%)
Responder n (%), UAS7 ≤6 (400 mg QPM, Week 2): 1 (2.6) n (%)
Imputed non-responder n (%), UAS7 = 0 (400 mg QPM, Week 3): 0 n (%)
Imputed non-responder n (%), UAS7 ≤6 (400 mg QPM, Week 3): 0 n (%)
Non-responder n (%), UAS7 = 0 (400 mg QPM, Week 3): 38 (100) n (%)
Non-responder n (%), UAS7 ≤6 (400 mg QPM, Week 3): 36 (94.7) n (%)
OR for rilzabrutinib vs. placebo, UAS7 = 0 (400 mg QPM, Week 3): 0.000 (NE,
OR for rilzabrutinib vs. placebo, UAS7 ≤6 (400 mg QPM, Week 3): 0.553
RRD (%) for rilzabrutinib vs. placebo, UAS7 = 0 (400 mg QPM, Week 3): −2.6 %
RRD (%) for rilzabrutinib vs. placebo, UAS7 ≤6 (400 mg QPM, Week 3): −3.9%
Responder n (%), UAS7 = 0 (400 mg QPM, Week 3): 0 n (%)
Responder n (%), UAS7 ≤6 (400 mg QPM, Week 3): 2 (5.3) n (%)
Imputed non-responder n (%), UAS7 = 0 (400 mg QPM, Week 4): 1 (2.6) n (%)
Imputed non-responder n (%), UAS7 ≤6 (400 mg QPM, Week 4): 1 (2.6) n (%)
Non-responder n (%), UAS7 = 0 (400 mg QPM, Week 4): 38 (100) n (%)
Non-responder n (%), UAS7 ≤6 (400 mg QPM, Week 4): 36 (94.7) n (%)
OR for rilzabrutinib vs. placebo, UAS7 = 0 (400 mg QPM, Week 4): 0.000 (NE,
OR for rilzabrutinib vs. placebo, UAS7 ≤6 (400 mg QPM, Week 4): 0.432
RRD (%) for rilzabrutinib vs. placebo, UAS7 = 0 (400 mg QPM, Week 4): −4.8 %
RRD (%) for rilzabrutinib vs. placebo, UAS7 ≤6 (400 mg QPM, Week 4): −6.0%
Responder n (%), UAS7 = 0 (400 mg QPM, Week 4): 0 n (%)
Responder n (%), UAS7 ≤6 (400 mg QPM, Week 4): 2 (5.3) n (%)
Imputed non-responder n (%), UAS7 = 0 (400 mg QPM, Week 5): 2 (5.3) n (%)
Imputed non-responder n (%), UAS7 ≤6 (400 mg QPM, Week 5): 2 (5.3) n (%)
Non-responder n (%), UAS7 = 0 (400 mg QPM, Week 5): 37 (97.4) n (%)
Non-responder n (%), UAS7 ≤6 (400 mg QPM, Week 5): 36 (94.7) n (%)
OR for rilzabrutinib vs. placebo, UAS7 = 0 (400 mg QPM, Week 5): 1.000
OR for rilzabrutinib vs. placebo, UAS7 ≤6 (400 mg QPM, Week 5): 1.065
RRD (%) for rilzabrutinib vs. placebo, UAS7 = 0 (400 mg QPM, Week 5): 0.0 %
RRD (%) for rilzabrutinib vs. placebo, UAS7 ≤6 (400 mg QPM, Week 5): 0.3 %
Responder n (%), UAS7 = 0 (400 mg QPM, Week 5): 1 (2.6) n (%)
Responder n (%), UAS7 ≤6 (400 mg QPM, Week 5): 2 (5.3) n (%)
